Measurements: patent US20100137449A1, “SUBSTITUTED 1,3-CYCLOPENTADIONE MULTI-TARGET PROTEIN KINASE MODULATORS OF CANCER, ANGIOGENESIS AND THE INFLAMMATORY PATHWAYS ASSOCIATED THEREWITH” (METAPROTEOMICS, LLC, priority 2007, published 2010)

How the values were obtained:
Experiment in all cases: KinaseProfiler Assay
CDK1/cyclinB(h) = CDK1/cyclinB(h) (Homo sapiens, UniProt P06493)
CDK5/p35(h) = CDK5/p35(h) (Homo sapiens, UniProt Q00535)
CK1γ2(h) = CK1γ2(h) (Homo sapiens, UniProt P78368)
cKit(h) = cKit(h) (Homo sapiens, UniProt P10721)
CLK2(h) = CLK2(h) (Homo sapiens, UniProt P49760)
DAPK1(h) = DAPK1(h) (Homo sapiens, UniProt P53355)
JAK3(h) = target: T1, JAK3(h) (Homo sapiens, UniProt P52333)
T1 sequence (P52333 1-1124): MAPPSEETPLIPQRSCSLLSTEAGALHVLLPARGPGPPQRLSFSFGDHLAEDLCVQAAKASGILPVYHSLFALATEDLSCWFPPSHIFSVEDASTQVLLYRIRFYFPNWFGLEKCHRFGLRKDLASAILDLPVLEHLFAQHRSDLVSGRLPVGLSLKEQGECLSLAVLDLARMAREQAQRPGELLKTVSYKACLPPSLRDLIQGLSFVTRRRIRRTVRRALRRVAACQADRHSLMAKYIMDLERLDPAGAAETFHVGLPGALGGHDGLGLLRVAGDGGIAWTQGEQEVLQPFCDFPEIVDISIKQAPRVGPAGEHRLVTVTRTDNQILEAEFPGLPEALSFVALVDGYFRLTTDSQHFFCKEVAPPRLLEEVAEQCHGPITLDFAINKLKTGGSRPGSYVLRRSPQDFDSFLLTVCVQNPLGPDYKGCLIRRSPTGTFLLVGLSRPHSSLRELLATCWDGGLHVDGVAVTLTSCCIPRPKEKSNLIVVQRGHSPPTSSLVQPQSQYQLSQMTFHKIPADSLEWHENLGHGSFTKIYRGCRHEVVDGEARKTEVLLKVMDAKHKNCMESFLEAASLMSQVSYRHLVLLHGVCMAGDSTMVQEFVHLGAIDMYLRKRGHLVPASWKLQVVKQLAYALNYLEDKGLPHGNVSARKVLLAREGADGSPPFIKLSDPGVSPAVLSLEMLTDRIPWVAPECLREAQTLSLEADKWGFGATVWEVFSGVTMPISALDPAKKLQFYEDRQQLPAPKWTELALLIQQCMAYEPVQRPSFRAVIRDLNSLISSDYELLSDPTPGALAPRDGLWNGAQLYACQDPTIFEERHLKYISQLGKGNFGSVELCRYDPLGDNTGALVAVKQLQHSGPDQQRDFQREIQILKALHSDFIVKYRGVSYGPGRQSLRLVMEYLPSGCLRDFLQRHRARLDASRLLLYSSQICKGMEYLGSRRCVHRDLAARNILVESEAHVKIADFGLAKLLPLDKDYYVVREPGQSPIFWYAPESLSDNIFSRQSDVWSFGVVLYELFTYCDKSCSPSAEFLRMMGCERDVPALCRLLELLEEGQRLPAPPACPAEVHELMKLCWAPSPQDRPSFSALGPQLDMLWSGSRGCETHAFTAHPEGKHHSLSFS

MELK(h) = MELK(h) (Homo sapiens, UniProt Q14680)
NEK7(h) = NEK7(h) (Homo sapiens, UniProt Q8TDX7)
P70S6K(h) = P70S6K(h) (Homo sapiens, UniProt P23443)
Sequence of P70S6K(h) (P23443 whole entry): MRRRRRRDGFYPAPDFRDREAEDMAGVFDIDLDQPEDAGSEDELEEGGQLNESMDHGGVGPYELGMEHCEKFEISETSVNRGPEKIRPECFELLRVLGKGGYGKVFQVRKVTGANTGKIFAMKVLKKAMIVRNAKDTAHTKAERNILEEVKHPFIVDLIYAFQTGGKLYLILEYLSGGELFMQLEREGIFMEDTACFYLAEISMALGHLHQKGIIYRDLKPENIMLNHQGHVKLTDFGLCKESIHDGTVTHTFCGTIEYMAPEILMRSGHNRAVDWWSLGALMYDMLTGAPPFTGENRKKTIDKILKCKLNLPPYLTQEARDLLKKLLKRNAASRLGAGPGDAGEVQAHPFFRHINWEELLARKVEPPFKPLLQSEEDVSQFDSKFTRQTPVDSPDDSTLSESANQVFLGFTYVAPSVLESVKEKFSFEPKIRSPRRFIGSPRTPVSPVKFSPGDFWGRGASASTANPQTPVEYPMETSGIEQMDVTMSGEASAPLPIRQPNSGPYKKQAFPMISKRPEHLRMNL

Sequence of NEK7(h) (Q8TDX7 whole entry): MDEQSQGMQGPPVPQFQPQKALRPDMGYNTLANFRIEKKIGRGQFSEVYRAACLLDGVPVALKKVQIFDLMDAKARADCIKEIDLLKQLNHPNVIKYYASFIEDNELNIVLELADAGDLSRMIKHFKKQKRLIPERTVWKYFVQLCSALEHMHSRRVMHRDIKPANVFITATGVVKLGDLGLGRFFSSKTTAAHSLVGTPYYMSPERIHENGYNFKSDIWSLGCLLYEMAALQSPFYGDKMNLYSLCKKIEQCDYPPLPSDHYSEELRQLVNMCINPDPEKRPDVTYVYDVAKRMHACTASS
Sequence of cKit(h) (P10721 26-976): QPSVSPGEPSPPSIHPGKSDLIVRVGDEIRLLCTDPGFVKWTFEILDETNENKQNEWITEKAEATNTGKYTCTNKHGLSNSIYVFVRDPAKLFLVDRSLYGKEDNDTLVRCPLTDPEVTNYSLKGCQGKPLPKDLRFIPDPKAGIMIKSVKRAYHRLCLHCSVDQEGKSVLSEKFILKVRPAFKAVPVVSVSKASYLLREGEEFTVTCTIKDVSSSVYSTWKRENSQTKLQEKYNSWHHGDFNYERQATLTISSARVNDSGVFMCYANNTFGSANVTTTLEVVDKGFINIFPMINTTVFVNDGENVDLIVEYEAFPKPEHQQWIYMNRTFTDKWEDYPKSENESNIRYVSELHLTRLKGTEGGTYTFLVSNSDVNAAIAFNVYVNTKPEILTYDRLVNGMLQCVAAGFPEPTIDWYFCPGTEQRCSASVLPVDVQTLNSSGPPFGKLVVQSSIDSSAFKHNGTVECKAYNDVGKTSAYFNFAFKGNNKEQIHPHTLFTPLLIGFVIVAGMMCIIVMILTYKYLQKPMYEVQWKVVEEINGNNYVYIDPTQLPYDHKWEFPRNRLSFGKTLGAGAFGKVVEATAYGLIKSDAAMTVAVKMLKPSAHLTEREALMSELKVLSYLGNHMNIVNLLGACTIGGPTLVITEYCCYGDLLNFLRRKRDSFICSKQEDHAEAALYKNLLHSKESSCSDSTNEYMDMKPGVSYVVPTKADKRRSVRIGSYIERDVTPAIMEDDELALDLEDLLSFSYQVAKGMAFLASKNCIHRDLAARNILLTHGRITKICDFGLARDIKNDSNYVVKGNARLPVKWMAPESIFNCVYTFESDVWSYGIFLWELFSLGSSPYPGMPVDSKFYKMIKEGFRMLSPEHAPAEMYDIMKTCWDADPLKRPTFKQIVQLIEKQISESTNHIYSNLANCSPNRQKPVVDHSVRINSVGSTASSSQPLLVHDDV
Sequence of CK1γ2(h) (P78368 whole entry): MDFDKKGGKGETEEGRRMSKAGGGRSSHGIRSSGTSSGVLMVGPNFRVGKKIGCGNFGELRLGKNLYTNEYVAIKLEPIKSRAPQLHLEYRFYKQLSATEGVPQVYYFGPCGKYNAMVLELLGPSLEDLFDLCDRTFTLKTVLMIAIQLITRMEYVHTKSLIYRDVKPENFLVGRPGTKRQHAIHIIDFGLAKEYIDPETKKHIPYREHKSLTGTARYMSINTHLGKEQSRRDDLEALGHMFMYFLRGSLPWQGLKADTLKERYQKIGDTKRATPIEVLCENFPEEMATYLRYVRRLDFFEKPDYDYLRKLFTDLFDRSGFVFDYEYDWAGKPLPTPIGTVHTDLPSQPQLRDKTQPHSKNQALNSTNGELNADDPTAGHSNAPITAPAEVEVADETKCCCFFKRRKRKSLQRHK
Sequence of CDK1/cyclinB(h) (P06493 whole entry): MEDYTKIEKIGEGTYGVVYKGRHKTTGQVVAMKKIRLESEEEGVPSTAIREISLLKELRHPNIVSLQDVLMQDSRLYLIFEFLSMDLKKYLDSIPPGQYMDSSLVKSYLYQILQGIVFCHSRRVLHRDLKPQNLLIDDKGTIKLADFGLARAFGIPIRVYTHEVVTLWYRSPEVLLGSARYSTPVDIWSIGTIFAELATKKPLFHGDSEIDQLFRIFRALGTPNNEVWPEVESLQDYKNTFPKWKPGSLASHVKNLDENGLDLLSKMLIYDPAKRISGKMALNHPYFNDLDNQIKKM
Sequence of CDK1/cyclinB(h) (P14635 whole entry partner): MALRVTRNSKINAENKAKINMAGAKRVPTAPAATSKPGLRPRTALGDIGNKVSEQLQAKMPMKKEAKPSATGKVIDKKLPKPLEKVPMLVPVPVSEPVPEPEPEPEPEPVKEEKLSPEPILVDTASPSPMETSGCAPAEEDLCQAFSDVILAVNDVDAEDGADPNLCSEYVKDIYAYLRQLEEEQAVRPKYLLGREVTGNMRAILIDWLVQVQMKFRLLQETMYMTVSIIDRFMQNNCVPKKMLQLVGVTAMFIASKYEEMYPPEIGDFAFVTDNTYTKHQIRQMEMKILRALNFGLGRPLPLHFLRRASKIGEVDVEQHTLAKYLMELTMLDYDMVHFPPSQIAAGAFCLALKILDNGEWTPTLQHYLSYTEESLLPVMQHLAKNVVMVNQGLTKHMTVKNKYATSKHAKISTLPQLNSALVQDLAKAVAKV
Sequence of CDK5/p35(h) (Q00535 whole entry): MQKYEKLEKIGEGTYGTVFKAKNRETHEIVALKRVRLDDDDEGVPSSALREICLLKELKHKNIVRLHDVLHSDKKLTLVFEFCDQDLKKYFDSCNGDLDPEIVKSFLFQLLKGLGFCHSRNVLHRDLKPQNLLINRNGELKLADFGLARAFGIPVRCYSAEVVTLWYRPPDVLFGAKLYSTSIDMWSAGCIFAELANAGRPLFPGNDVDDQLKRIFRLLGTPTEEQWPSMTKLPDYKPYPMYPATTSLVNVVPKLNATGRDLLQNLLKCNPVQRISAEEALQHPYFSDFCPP
Sequence of CDK5/p35(h) (Q15078 whole entry partner): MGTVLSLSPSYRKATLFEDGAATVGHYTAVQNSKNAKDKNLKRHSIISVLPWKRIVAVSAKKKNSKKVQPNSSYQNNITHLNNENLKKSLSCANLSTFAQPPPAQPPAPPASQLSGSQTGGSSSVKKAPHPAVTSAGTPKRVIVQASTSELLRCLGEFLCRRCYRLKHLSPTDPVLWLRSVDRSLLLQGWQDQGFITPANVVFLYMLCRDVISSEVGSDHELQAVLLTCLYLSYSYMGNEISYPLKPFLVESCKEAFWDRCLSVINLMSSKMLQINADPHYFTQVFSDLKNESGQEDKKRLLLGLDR
Sequence of MELK(h) (Q14680 whole entry): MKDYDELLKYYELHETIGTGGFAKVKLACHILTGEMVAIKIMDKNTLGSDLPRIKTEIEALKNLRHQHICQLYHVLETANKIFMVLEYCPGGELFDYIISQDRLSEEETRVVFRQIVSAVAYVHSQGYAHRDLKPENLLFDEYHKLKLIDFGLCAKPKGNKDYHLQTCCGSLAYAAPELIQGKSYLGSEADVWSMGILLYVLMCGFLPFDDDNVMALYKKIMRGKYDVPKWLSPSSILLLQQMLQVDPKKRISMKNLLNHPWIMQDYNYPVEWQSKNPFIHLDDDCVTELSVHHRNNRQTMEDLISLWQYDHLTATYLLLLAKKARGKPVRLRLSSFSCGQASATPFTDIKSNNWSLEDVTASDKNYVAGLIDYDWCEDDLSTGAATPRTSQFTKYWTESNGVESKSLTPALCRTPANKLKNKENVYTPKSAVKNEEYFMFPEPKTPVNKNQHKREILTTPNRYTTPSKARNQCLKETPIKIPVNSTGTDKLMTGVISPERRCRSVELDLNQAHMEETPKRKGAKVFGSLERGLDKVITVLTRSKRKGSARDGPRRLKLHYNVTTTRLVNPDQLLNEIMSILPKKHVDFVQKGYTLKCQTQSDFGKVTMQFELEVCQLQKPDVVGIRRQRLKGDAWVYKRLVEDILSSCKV
Sequence of CLK2(h) (P49760 whole entry): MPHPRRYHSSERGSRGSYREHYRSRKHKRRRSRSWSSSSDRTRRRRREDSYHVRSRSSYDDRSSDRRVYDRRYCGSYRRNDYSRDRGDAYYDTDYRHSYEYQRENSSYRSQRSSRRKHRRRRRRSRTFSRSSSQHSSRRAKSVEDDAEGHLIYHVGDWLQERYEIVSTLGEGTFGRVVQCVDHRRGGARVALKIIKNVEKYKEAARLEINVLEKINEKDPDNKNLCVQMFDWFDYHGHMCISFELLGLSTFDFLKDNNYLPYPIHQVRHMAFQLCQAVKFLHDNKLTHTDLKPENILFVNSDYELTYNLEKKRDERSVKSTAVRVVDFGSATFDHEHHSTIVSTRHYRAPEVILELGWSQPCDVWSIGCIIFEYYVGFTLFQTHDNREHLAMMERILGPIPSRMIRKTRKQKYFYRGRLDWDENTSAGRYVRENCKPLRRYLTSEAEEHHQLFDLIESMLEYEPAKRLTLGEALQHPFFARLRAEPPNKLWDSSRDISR

For `CC(C)CCC(=O)[C@]1(O)C(O)=C(C(=O)C(C)C)C(=O)[C@H]1CCC(C)C` [TH2, tetrahydroiso-cohumulone], the kinase inhibition (CDK1/cyclinB(h); 1 μg/ml) was 111% of control, the kinase inhibition (CDK1/cyclinB(h); 5 μg/ml) was 111% of control and the kinase inhibition (CDK1/cyclinB(h); 25 μg/ml) was 90% of control. For the same compound, the kinase inhibition (CDK1/cyclinB(h); 50 μg/ml) was 86% of control, the kinase inhibition (CDK1/cyclinB(h); 100 μg/ml) was 74% of control and the kinase inhibition (CDK5/p35(h); 1 μg/ml) was 105% of control. For the same compound, the kinase inhibition (CDK5/p35(h); 5 μg/ml) was 98% of control, the kinase inhibition (CDK5/p35(h); 25 μg/ml) was 106% of control and the kinase inhibition (CDK5/p35(h); 50 μg/ml) was 80% of control. For the same compound, the kinase inhibition (CDK5/p35(h); 100 μg/ml) was 90% of control, the kinase inhibition (CK1γ2(h); 1 μg/ml) was 103% of control and the kinase inhibition (CK1γ2(h); 5 μg/ml) was 96% of control. For the same compound, the kinase inhibition (CK1γ2(h); 25 μg/ml) was 79% of control, the kinase inhibition (CK1γ2(h); 50 μg/ml) was 54% of control and the kinase inhibition (CK1γ2(h); 100 μg/ml) was 49% of control. For the same compound, the kinase inhibition (cKit(h); 1 μg/ml) was 110% of control, the kinase inhibition (cKit(h); 5 μg/ml) was 87% of control and the kinase inhibition (cKit(h); 25 μg/ml) was 86% of control. The kinase inhibition (cKit(h); 50 μg/ml) was 96% of control, the kinase inhibition (cKit(h); 100 μg/ml) was 95% of control and the kinase inhibition (CLK2(h); 1 μg/ml) was 103% of control. The kinase inhibition (CLK2(h); 5 μg/ml) was 100% of control, the kinase inhibition (CLK2(h); 25 μg/ml) was 110% of control and the kinase inhibition (CLK2(h); 50 μg/ml) was 101% of control. For the same compound, the kinase inhibition (CLK2(h); 100 μg/ml) was 96% of control, the kinase inhibition (DAPK1(h); 1 μg/ml) was 63% of control and the kinase inhibition (DAPK1(h); 5 μg/ml) was 40% of control. The kinase inhibition (DAPK1(h); 25 μg/ml) was 32% of control, the kinase inhibition (DAPK1(h); 50 μg/ml) was 25% of control and the kinase inhibition (DAPK1(h); 100 μg/ml) was 19% of control. The kinase inhibition (JAK3(h); 1 μg/ml) was 74% of control, the kinase inhibition (JAK3(h); 5 μg/ml) was 67% of control and the kinase inhibition (JAK3(h); 25 μg/ml) was 62% of control. For the same compound, the kinase inhibition (JAK3(h); 50 μg/ml) was 53% of control, the kinase inhibition (JAK3(h); 100 μg/ml) was 35% of control and the kinase inhibition (MELK(h); 1 μg/ml) was 116% of control. The kinase inhibition (MELK(h); 5 μg/ml) was 104% of control, the kinase inhibition (MELK(h); 25 μg/ml) was 102% of control and the kinase inhibition (MELK(h); 50 μg/ml) was 98% of control. The kinase inhibition (MELK(h); 100 μg/ml) was 83% of control, the kinase inhibition (NEK7(h); 1 μg/ml) was 103% of control and the kinase inhibition (NEK7(h); 5 μg/ml) was 107% of control. For the same compound, the kinase inhibition (NEK7(h); 25 μg/ml) was 98% of control, the kinase inhibition (NEK7(h); 50 μg/ml) was 95% of control and the kinase inhibition (NEK7(h); 100 μg/ml) was 84% of control. For the same compound, the kinase inhibition (P70S6K(h); 1 μg/ml) was 108% of control, the kinase inhibition (P70S6K(h); 5 μg/ml) was 108% of control and the kinase inhibition (P70S6K(h); 25 μg/ml) was 108% of control. The kinase inhibition (P70S6K(h); 50 μg/ml) was 92% of control and the kinase inhibition (P70S6K(h); 100 μg/ml) was 69% of control.
